Experimental data published in patent US9170264B2, “Methods of monitoring for adherence to aripiprazole therapy” (Ameritox, Ltd., priority 2013, dated 2015).
“And” between values parts separate entries of the source, which are not always exact repeats. Equal entries are not always repeated.

What was measured:
[1] = Levels of OPC3373, aripiprazole and dehydroaripiprazole in urine of humans taking chronic doses of aripiprazole (Example 1); assay type: in vivo, human; conditions: for Levels in Human Urine: individual specimens, chronic doses of aripiprazole, LOQ OPC3373 100 ng/mL, dehydroaripiprazole 5 ng/mL, aripiprazole 5 ng/mL
Procedure: (§1) The concentration of any analyte described in the present disclosure may be determined (e.g., measured) by any suitable quantification method. In some embodiments, the concentration of an analyte (e.g., aripiprazole, dehydroaripiprazole, and/or OPC3373) is measured by tandem liquid chromatography-mass spectrometry-mass spectrometry (“LC/MSMS”). In some embodiments, the concentration of an analyte (e.g., aripiprazole, dehydroaripiprazole, and/or OPC3373) is measured by tandem liquid chromatography-High Resolution mass spectrometry (Time of Flight (TOF)) (“LC/MS(TOF)”). In some embodiments, the concentration of an analyte (e.g., aripiprazole, dehydroaripiprazole, and/or OPC3373) is measured by direct injection mass spectrometry-mass spectrometry ([…]) e.g., such systems as RapidFire™ (Agilent) or Laser Diode Thermal Desorption (“LDTD”) (Phytronix) to introduce samples into the mass spectrometer; either triple quadrupole (i.e., MSMS) or exact mass (i.e., Time of Flight, Orbitrap, etc.) instruments
The appearance of OPC3373 (4-[(2-Oxo-1,2,3,4-tetrahydro-7-quinolinyl)oxy]butanoic acid, BMS-337047) as the major aripiprazole metabolite in the urine can be used to help monitor patient adherence to aripiprazole therapy. While analysis of both aripiprazole and the plasma metabolite, dehydroaripiprazole, can be used to monitor patient adherence, the relatively low levels of these molecules in the urine frequently results in “false negatives” in patients known to be taking aripiprazole.

[2] = cited from earlier work
[3] = Urine testing of aripiprazole positive patients in a controlled study, LC/MSMS (Example 2); assay type: in vivo, human; conditions: 5 mg q day, individual samples, LLOQ aripiprazole 5, dehydroaripiprazole 5, OPC3373 25 ng/mL
Procedure: as §1
An additional set of aripiprazole positive patients was monitored for levels of aripiprazole, dehyrdroaripiprazole, and OPC3373 in their urine.
Dehydroaripiprazole: 5 ng/mL
These analyses were completed using LC/MSMS.

[4] = Urine testing for compliance over 5 days, patients prescribed 30 mg/day Abilify (Example 3); assay type: in vivo, human; conditions: for urine concentration: 30 mg/day Abilify, individual subjects
Procedure: as §1
The urine of 5 patients who were prescribed 30 mg of Abilify® (aripiprazole) was tested for compliance over 5 days (Table 3). […] Without OPC3373, only 93% were determined to be positive with one patient either having stopped taking their medicine between day 4 and 5 or just being below the reporting cutoffs for both aripiprazole and dehydroaripiprazole. Thus, use of OPC3373 as a urine biomarker even at this relatively high dose adds value to compliance monitoring for Abilify®.

[5] = Urine testing for compliance over 5 days, patients prescribed 20 mg/day Abilify (Example 4); assay type: in vivo, human; conditions: n 66 samples
Procedure: as §1
The urine of 22 patients who were prescribed 20 mg of Ability (e.g., aripiprazole) was tested for compliance over 5 days (Table 5). […] Without OPC3373, only 85% were determined to be positive with patients just being below the reporting cutoffs for both aripiprazole and dehydroaripiprazole. Thus, use of OPC3373 as a urine biomarker even at this relatively high dose adds value to compliance monitoring for Abilify®.

[6] = Urine testing for compliance over 5 days, patients prescribed 15 mg/day Abilify (Example 5); assay type: in vivo, human; set-up: urine concentration: unit not given here; conditions: for urine concentration, Avg / urine concentration, Max / urine concentration, Min: n 69 samples
Procedure: as §1
The urine of 23 patients who were prescribed 15 mg of Abilify® (aripiprazole) was tested for compliance over 5 days (Table 7). […] Without OPC3373, only 78% were determined to be positive with patients just being below the reporting cutoffs for both aripiprazole and dehydroaripiprazole. […] Thus, use of OPC3373 as a urine biomarker at this dose adds value to compliance monitoring for Abilify®.

[7] = Urine testing for compliance over 5 days, patients prescribed 10 mg/day Abilify (Example 6); assay type: in vivo, human; conditions: n 111 samples
Procedure: as §1
The urine of 37 patients who were prescribed 10 mg of Abilify® (aripiprazole) was tested for compliance over 5 days (Table 9). […] Without OPC3373, only 61% were determined to be positive with patients just being below the reporting cutoffs for both aripiprazole and dehydroaripiprazole. Thus, use of OPC3373 as a urine biomarker at this dose adds value to compliance monitoring for Abilify®.

[8] = Urine testing for compliance over 5 days, patients prescribed 5 mg/day Abilify (Example 7); assay type: in vivo, human; set-up: Aripiprazole (urine test result) / Dehydroaripiprazole (urine test result): unit not given here; conditions: for Dehydroaripiprazole (urine test result) / Aripiprazole (urine test result): human urine, patients prescribed 5 mg/day Abilify
Procedure: as §1
The urine of 25 patients who were prescribed 5 mg of Abilify® (aripiprazole) was tested for compliance over 5 days (Table 11). […] Without OPC3373, only 47% were determined to be positive with patients just being below the reporting cutoffs for both aripiprazole and dehydroaripiprazole. Thus, use of OPC3373 as a urine biomarker at this lower dose adds a great deal of value to compliance monitoring for Abilify®.

[9] = Urine testing for compliance over 5 days, patients prescribed 2 mg/day Abilify (Example 8); assay type: in vivo, human; set-up: Urine concentration, individual subject: unit not given here
Procedure: as §1
The urine of 15 patients who were prescribed 2 mg of Abilify® (aripiprazole) was tested for compliance over 5 days (Table 14). […] Without OPC3373, only 24% were determined to be positive with patients just being below the reporting cutoffs for both aripiprazole and dehydroaripiprazole. Thus, use of OPC3373 as a urine biomarker at this lower dose makes compliance monitoring for Abilify® possible. […] However, OPC3373 in subject M confirmed the subject's adherence to aripirazole therapy despite the low observed creatinine level.

[10] = Day 1, subjects A-O (one value per subject)
[11] = Day 4, subjects A-O (one value per subject)
[12] = Day 5, subjects A-O (one value per subject)

O=C(O)CCCOc1ccc2c(c1)NC(=O)CC2 [OPC3373, 4-[(2-Oxo-1,2,3,4-tetrahydro-7-quinolinyl)oxy]butanoic acid]
Range of levels in Human Urine ([1]; human, in vivo): 10*-1500 ng/mL
share of a dose represented in plasma [2]: 2%
recovered from a dose as urinary metabolite ([2]; urine, reported by Baselt): 19%

O=c1ccc2ccc(OCCCCN3CCN(c4cccc(Cl)c4Cl)CC3)cc2[nH]1 [Dehydroaripiprazole, dehydroaripiprazole]
Levels in Human Urine [1]: <5.0 ng/mL (7×) and 5.1 ng/mL (2×) and 14.1 ng/mL and 0.0 ng/mL (5×) and 17.8 ng/mL and 20.1 ng/mL and 5.9 ng/mL and 0 ng/mL and 15.8 ng/mL and 8.8 ng/mL and 56.1 ng/mL
Range of levels in Human Urine ([1]; over 22 specimens, * below LOQ): 5 to 75 ng/mL
Abilify Urine Results [3]: 0 ng/mL (3×) and 6.5 ng/mL and 5.2 ng/mL and 6.4 ng/mL
urine concentration ([4]; Day 1): 11.5 and 29.2 and 6.8 and 56.9 and 14.1
urine concentration ([4]; Day 4): 14.1 and 84.8 and 11.0 and 36.3 and 16.6
urine concentration ([4]; Day 5): 0 and 17.0 and 8.9 and 89.7 and 28.1
urine concentration, Avg ([4]; 30 mg/day, n 15 samples): 28.33 ng/mL
urine concentration, Max ([4]; 30 mg/day, n 15 samples): 89.70 ng/mL
urine concentration, Min ([4]; 30 mg/day, n 15 samples): 0.00 ng/mL
urine concentration, Avg [5]: 12.30
urine concentration, Max [5]: 91.40
urine concentration, Min [5]: 0.00
urine concentration ([6]; Day 1, individual subjects): 27.9 and 0 (6×) and 21 and 10.1 and 5.9 and 11.4 (2×) and 12.8 and 25.4 and 12.3 and 6.7 and 6.1 and 5.5 and 9.6 and 5.2 and 5.1 and 14.6 and 6.6
urine concentration ([6]; Day 4, individual subjects): 16.8 and 7.4 and 20.7 and 7.5 and 0 (11×) and 24 and 21.0 and 10.1 and 25.8 and 8.6 and 8.1 and 14.3 and 8.0
urine concentration ([6]; Day 5, individual subjects): 12.8 and 0 (9×) and 5.2 and 17.0 and 24.1 (2×) and 23.1 and 23.9 and 33.3 and 12.3 and 6.5 and 11.2 and 16.6 and 0.0 and 24.9
urine concentration, Avg [6]: 8.76
urine concentration, Max [6]: 33.30
urine concentration, Min [6]: 0.00
urine concentration, Max [7]: 64.8
urine concentration, Min [7]: 0
urine concentration, avg [7]: 6.27
Urine drug/metabolite concentration, Extremes ([8]; 5 mg/day Abilify, Day 1): 0-6.5
Urine drug/metabolite concentration, Mean +/- SD ([8]; 5 mg/day Abilify, Day 1): 2.3 +/− 3.2
Urine drug/metabolite concentration, Median ([8]; 5 mg/day Abilify, Day 1): 0
Urine drug/metabolite concentration, Extremes ([8]; 5 mg/day Abilify, Day 4): 0-6.1
Urine drug/metabolite concentration, Median ([8]; 5 mg/day Abilify, Day 4): 0
Urine drug/metabolite concentration, Extremes ([8]; 5 mg/day Abilify, Day 5): 0-8.2
Urine drug/metabolite concentration, Median ([8]; 5 mg/day Abilify, Day 5): 0
urine concentration, Avg ([8]; 5 mg/day Abilify, n 75 samples): 1.96
urine concentration, Max ([8]; 5 mg/day Abilify, n 75 samples): 17.1
urine concentration, Min ([8]; 5 mg/day Abilify, n 75 samples): 0
Dehydroaripiprazole (urine test result) ([8]; Day 1): 6.6 and 0 (20×) and 5.1 and 7.4 and 5.3 and 8.7
Dehydroaripiprazole (urine test result) ([8]; Day 4): 10.2 and 0 (19×) and 17.1 and 8.0 and 7.5 and 7.4 and 8.4
Dehydroaripiprazole (urine test result) ([8]; Day 5): 5.7 and 0 (19×) and 5.2 and 5.5 and 15.8 and 8.2 and 15.1
Urine drug/metabolite concentration, Extremes ([9]; Day 1): 0-7.4
Urine drug/metabolite concentration, Mean +/- SD ([9]; Day 1): 0.5 +/− 1.9
Urine drug/metabolite concentration, Median ([9]; Day 1): 0
Urine concentration, individual subject [9, 10]: 0
Urine drug/metabolite concentration, Extremes ([9]; Day 4): 0-0
Urine drug/metabolite concentration, Mean +/- SD ([9]; Day 4): 0 +/− 0
Urine drug/metabolite concentration, Median ([9]; Day 4): 0
Urine concentration, individual subject [9, 11]: 0
Urine drug/metabolite concentration, Extremes ([9]; Day 5): 0-0
Urine drug/metabolite concentration, Mean +/- SD ([9]; Day 5): 0 +/− 0
Urine drug/metabolite concentration, Median ([9]; Day 5): 0
Urine concentration, individual subject [9, 12]: 0 (13×) and 10.7 and 0.0
urine concentration, Avg ([9]; n 45 samples): 0.24
urine concentration, Max ([9]; n 45 samples): 10.7
urine concentration, Min ([9]; n 45 samples): 0
share of a dose represented in plasma [2]: 20%

O=C1CCc2ccc(OCCCCN3CCN(c4cccc(Cl)c4Cl)CC3)cc2N1 [Aripiprazole]
Levels in Human Urine [1]: 9.5 ng/mL and <5.0 ng/mL (9×) and 32.4 ng/mL and 9.7 ng/mL and 53.3 ng/mL and 84.9 ng/mL and 38.7 ng/mL and 10 ng/mL and 0.0 ng/mL (2×) and 17.4 ng/mL and 17.9 ng/mL and 5.0 ng/mL and 39.5 ng/mL
Range of levels in Human Urine ([1]; over 22 specimens, * below LOQ): 5 to 100 ng/mL
Abilify Urine Results [3]: 0 ng/mL and 11.1 ng/mL and 22.3 ng/mL and 9.4 ng/mL and 19.4 ng/mL and 11.6 ng/mL
urine concentration ([6]; Day 1, individual subjects): 52.2 and 0 (6×) and 5.3 and 15.1 and 31.2 and 15.4 and 17.9 and 20.0 and 31.5 and 9.8 and 8.9 and 17.5 and 15.0 and 10.1 and 5.4 and 19.4 and 27.6 and 14.6
urine concentration ([6]; Day 4, individual subjects): 31.7 and 19.5 and 39.3 and 10.2 and 8.9 and 12.3 and 0 (8×) and 40 and 26.7 and 45.3 and 14.5 and 6.2 and 5.7 and 7.9 and 62.3 and 19.0
urine concentration ([6]; Day 5, individual subjects): 22.8 and 0 (5×) and 16.4 and 9.3 and 6.9 and 32.1 and 37.1 and 16.7 and 7.4 and 57.3 and 12.3 and 14.2 (2×) and 7.5 and 17.7 and 25.3 and 5.1 and 76.7 and 9.6
urine concentration, Avg [6]: 15.29
urine concentration, Max [6]: 76.70
urine concentration, Min [6]: 0.00
Aripiprazole (urine test result) ([8]; Day 1): 10.1 and 0 (13×) and 9 and 7.5 and 5.0 and 9.7 and 8.5 and 8.8 and 8.4 and 13.1 and 6.4 and 38.4 and 5.4
Aripiprazole (urine test result) ([8]; Day 4): 21.5 and 11.3 and 6.6 (2×) and 0.0 (2×) and 5.2 and 0 (9×) and 32.4 and 13.1 and 15.6 and 6.5 and 10.3 and 7.5 and 5.5 and 9.5 and 11.8
Aripiprazole (urine test result) ([8]; Day 5): 10.2 and 5.1 and 7.3 and 0 (15×) and 14.9 and 0.0 and 5.3 and 10.1 and 12.7 and 9.7 and 31.6
Urine concentration, individual subject [9, 10]: 9.0 and 0 (6×) and 7.9
Urine concentration, individual subject [9, 11]: 0
Urine concentration, individual subject [9, 12]: 10.5 and 0 (4×) and 30.9 and 6.1
oral dose excreted as unchanged aripiprazole in faeces ([2]; faeces, humans): 8-18%
time of dosing until steady state serum concentrations are achieved ([2]; in vivo): two
share of a dose represented in plasma [2]: 57%
oral dose excreted as unchanged aripiprazole in urine ([2]; urine, humans): Less than 1%
